The source of these data is patent US10577363B2, “Substituted piperidine compounds” (EPIZYME, INC., priority 2014, dated 2020).

pIC50: −log10 of the molar value.

A word on the pIC50: it is −log10 of the IC50, conventionally taken in molar units.

The target in assay [1] is T1, SMYD3 (Homo sapiens (Human), UniProt Q9H7B4). Kind of assay: SMYD3 cell assay (Trimethyl-MEKK2 In-Cell Western in 293T/17 cells). Format: cell-based. Summed up: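 In-Cell Western ratio of trimethyl-Lys260 MEKK2 to anti-flag signal; percent inhibition from DMSO and maximum-inhibition controls, IC50 by non-linear regression, triplicates.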
Assay [2] concerns the target T1, SMYD3. In words: SMYD3 biochemical assay (SPA, 3H-SAM methylation of MEKK2 protein substrate). Summed up:
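Full-length native human SMYD3 (E. coli-expressed, tags removed) preincubated with compounds 30 min at room temperature, then reaction started with 3H-SAM and GST-tagged MEKK2 protein in 25 mM Tris-Cl pH 8.0, 1 mM TCEP, 0.005% BSG, 0.005% Tween 20. Quenched with unlabelled SAM (100 uM final); 3H-MEKK2 counted by SPA.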

[3] abbreviates: average of n = 1 to n = 50, read-out: SMYD3 Cell IC50.
[4] abbreviates: average of n = 1 to n = 50, read-out: SMYD3 Biochem IC50.

T1 sequence (Q9H7B4 whole entry): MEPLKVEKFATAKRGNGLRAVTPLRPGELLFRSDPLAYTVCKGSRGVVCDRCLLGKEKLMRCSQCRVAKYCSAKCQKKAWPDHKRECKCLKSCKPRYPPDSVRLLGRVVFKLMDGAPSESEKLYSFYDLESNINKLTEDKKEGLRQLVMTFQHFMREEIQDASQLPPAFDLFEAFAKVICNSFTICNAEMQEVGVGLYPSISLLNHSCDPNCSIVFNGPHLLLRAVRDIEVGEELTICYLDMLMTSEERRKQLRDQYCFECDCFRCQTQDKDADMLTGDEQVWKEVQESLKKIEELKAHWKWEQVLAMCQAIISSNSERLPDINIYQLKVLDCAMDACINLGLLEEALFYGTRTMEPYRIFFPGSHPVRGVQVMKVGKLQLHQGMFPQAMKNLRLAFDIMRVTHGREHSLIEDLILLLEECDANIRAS

`C[C@H]1C[C@@H](NC(=O)c2cc(C3CC3)on2)CCN1S(=O)(=O)NCc1c(F)cccc1Cl` [compound 754, N-((2S,4S)-1-(N-(2-chloro-6-fluorobenzyl)sulfamoyl)-2-methylpiperidin-4-yl)-5-cyclopropylisoxazole-3-carboxamide]: the pIC50 was 5.43 in assay [1] (setting [3]) and 6.17 in assay [2] (setting [4]).
For `C[C@@H]1CN(S(=O)(=O)N2CC[C@H](NC(=O)c3cc(C4CC4)on3)C[C@@H]2C)C[C@H](C)N1C` [compound 755, 5-cyclopropyl-N-((2S,4S)-2-methyl-1-(((3S,5R)-3,4,5-trimethylpiperazin-1-yl)sulfonyl)piperidin-4-yl)isoxazole-3-carboxamide], in that order: 5.62 and 6.17.
For `C[C@H]1C[C@@H](NC(=O)c2cc(C3CC3)on2)CCN1S(=O)(=O)c1ccnc(N)c1` [compound 756, N-((2S,4S)-1-((2-aminopyridin-4-yl)sulfonyl)-2-methylpiperidin-4-yl)-5-cyclopropylisoxazole-3-carboxamide], the pIC50 in assay [1] (setting [3]) is 5.75; in assay [2] (setting [4]) it was 6.17.
`CN(C1CCNCC1)S(=O)(=O)N1CC[C@@H](NC(=O)c2cc(C3CC3)on2)C[C@H]1Cc1ccccc1` [compound 757, N-((2R,4R)-2-benzyl-1-(N-methyl-N-(piperidin-4-yl)sulfamoyl)piperidin-4-yl)-5-cyclopropylisoxazole-3-carboxamide]: the pIC50 in assay [1] (setting [3]) is 5.12; in assay [2] (setting [4]) it was 6.14.
With `O=C(N[C@H]1C[C@H]2CC[C@@H](C1)N2S(=O)(=O)N1CC2COCC(C1)N2)c1cc(C2CC2)on1` [compound 758, N-((1R,3r,5S)-8-((3-oxa-7,9-diazabicyclo[3.3.1]nonan-7-yl)sulfonyl)-8-azabicyclo[3.2.1]octan-3-yl)-5-cyclopropylisoxazole-3-carboxamide], the pIC50 in assay [1] (setting [3]) is 5.78; in assay [2] (setting [4]) it was 6.14.
On the same counts, the results for `C[C@H]1C[C@@H](NC(=O)c2cc(C3CC3)on2)CCN1S(=O)(=O)N1CCN(C)[C@H](CCO)C1` [compound 759, 5-cyclopropyl-N-((2S,4S)-1-(((R)-3-(2-hydroxyethyl)-4-methylpiperazin-1-yl)sulfonyl)-2-methylpiperidin-4-yl)isoxazole-3-carboxamide] are 5.69 and 6.14.
For `CC(=O)NCc1ccc(S(=O)(=O)N2CC[C@H](NC(=O)c3cc(C4CC4)on3)C[C@@H]2C)cc1` [compound 761, N-((2S,4S)-1-((4-(acetamidomethyl)phenyl)sulfonyl)-2-methylpiperidin-4-yl)-5-cyclopropylisoxazole-3-carboxamide], in that order: 5.54 and 6.12.
For `COCC1CCCN1CCS(=O)(=O)N1[C@@H]2CC[C@H]1C[C@@H](NC(=O)c1cc(C3CC3)on1)C2` (stereo partly drawn) [compound 762, 5-cyclopropyl-N-((1R,3r,5S)-8-((2-(2-(methoxymethyl)pyrrolidin-1-yl)ethyl)sulfonyl)-8-azabicyclo[3.2.1]octan-3-yl)isoxazole-3-carboxamide], in that order: 5.68 and 6.11.
Regarding `C[C@@H]1C[C@H](NC(=O)c2cc(C3CC3)on2)CCN1C(=O)c1ccc(OCCN2CCNCC2)cc1` [compound 764, 5-cyclopropyl-N-((2R,4R)-2-methyl-1-(4-(2-(piperazin-1-yl)ethoxy)benzoyl)piperidin-4-yl)isoxazole-3-carboxamide], the pIC50 in assay [1] (setting [3]) is 5.01; in assay [2] (setting [4]) it was 6.09.
For `CCN1CCN(S(=O)(=O)N2[C@@H]3CCC[C@@H]2CC(NC(=O)c2cc(C4CC4)on2)C3)CC1` (stereo partly drawn) [compound 765, 5-cyclopropyl-N-((1R,5R)-9-((4-ethylpiperazin-1-yl)sulfonyl)-9-azabicyclo[3.3.1]nonan-3-yl)isoxazole-3-carboxamide], in that order: 5.62 and 6.08.
On to `O=C(N[C@H]1C[C@H]2CC[C@@H](C1)N2S(=O)(=O)[C@H]1CC[C@@H](NCCO)CC1)c1cc(C2CC2)on1` [compound 767, 5-cyclopropyl-N-((1R,3R,5S)-8-(((1S,4S)-4-((2-hydroxyethyl)amino)cyclohexyl)sulfonyl)-8-azabicyclo[3.2.1]octan-3-yl)isoxazole-3-carboxamide], for which the pIC50 is 7.71 in assay [1] (read-out: SMYD3 Cell IC50*) and 9.40 in assay [2] (read-out: SMYD3 Biochem IC50*).
For `O=C(N[C@H]1C[C@H]2CC[C@@H](C1)N2S(=O)(=O)[C@H]1CC[C@H](NCCO)CC1)c1cc(C2CC2)on1` [compound 768, 5-cyclopropyl-N-((1R,3R,5S)-8-(((1R,4R)-4-((2-hydroxyethyl)amino)cyclohexyl)sulfonyl)-8-azabicyclo[3.2.1]octan-3-yl)isoxazole-3-carboxamide], in that order: 7.46 and 9.15.
For `O=C(N[C@H]1C[C@H]2CC[C@@H](C1)N2S(=O)(=O)N1CC2(CCN(CCc3ccccc3)CC2)C1)c1cc(C2CC2)on1` [compound 769, 5-cyclopropyl-N-((1R,3r,5S)-8-((7-phenethyl-2,7-diazaspiro[3.5]nonan-2-yl)sulfonyl)-8-azabicyclo[3.2.1]octan-3-yl)isoxazole-3-carboxamide], in that order: 7.75 and 9.12.
On the same counts, the results for `CN(C)[C@H]1CC[C@@H](S(=O)(=O)N2[C@@H]3CC[C@H]2C[C@@H](NC(=O)c2cc(C4CC4)on2)C3)CC1` [compound 771, 5-cyclopropyl-N-((1R,3R,5S)-8-(((1s,4S)-4-(dimethylamino)cyclohexyl)sulfonyl)-8-azabicyclo[3.2.1]octan-3-yl)isoxazole-3-carboxamide] are 7.59 and 9.03.
For the compound `C[C@H]1C[C@@H](NC(=O)c2cc(C3CC3)on2)CCN1S(=O)(=O)C[C@H]1CC[C@H](N)C1` [compound 772, N-((2S,4S)-1-((((1S,3S)-3-aminocyclopentyl)methyl)sulfonyl)-2-methylpiperidin-4-yl)-5-cyclopropylisoxazole-3-carboxamide], the results for the pIC50 in assay [1] (read-out: SMYD3 Cell IC50*) and in assay [2] (read-out: SMYD3 Biochem IC50*) were 7.49 and 9.02, respectively.
For `C[C@H]1C[C@@H](NC(=O)c2cc(C3CC3)on2)CCN1S(=O)(=O)[C@H]1CC[C@H](N)CC1` [compound 773, N-((2S,4S)-1-(((1r,4S)-4-aminocyclohexyl)sulfonyl)-2-methylpiperidin-4-yl)-5-cyclopropylisoxazole-3-carboxamide], in that order: 7.75 and 8.99.
Regarding `C[C@H]1C[C@@H](NC(=O)c2cc(C3CC3)on2)CCN1S(=O)(=O)N1CCC(C)(N)CC1` [compound 774, N-((2S,4S)-1-((4-amino-4-methylpiperidin-l-yl)sulfonyl)-2-methylpiperidin-4-yl)-5-cyclopropylisoxazole-3-carboxamide], the pIC50 in assay [1] (read-out: SMYD3 Cell IC50*) was 7.59; in assay [2] (read-out: SMYD3 Biochem IC50*), 8.98.
On the same counts, the results for `CC[C@@H]1C[C@H](NC(=O)c2cc(C3CC3)on2)CCN1S(=O)(=O)CC1CCN(C)CC1` [compound 775, 5-cyclopropyl-N-((2R,4R)-2-ethyl-1-(((1-methylpiperidin-4-yl)methyl)sulfonyl)piperidin-4-yl)isoxazole-3-carboxamide] are 7.84 and 8.97.
